Measured values from patent publication US20150314021A1, “STERILIZATION METHOD COMPRISING STERILIZATION FLUID AND ULTRASONICALLY GERERATED CAVITATION MICROBUBBLES” (DEVIS TECHNOLOGIES INC., priority 2012, published 2015).
Read-outs that look alike come from different tables or passages of the source.

How the values were obtained:
[1] = system: Bacillus atrophaeus and Bacillus stearothermophilus; experiment: Reduction in viable cell count after 5 min exposure to sterilant and/or ultrasound; type: cell-based
Method: Comparative testing with exposure for 5 min to ultrasound at 250 kHz, 500 kHz and 1 MHz and using ultrasound and sterilant in separation as well as in combination was conducted and the reduction in viable cell count was determined using standard methodology.

[2] = system: Bacillus atrophaeus and Bacillus stearothermophilus; experiment: Growth of surviving bacteria colonies after exposure; type: cell-based; conditions: 500 kHz test; observed at 24, 48 and 96 hours (FIGS. 8 and 9)
Source text: In the parallel tests with hydrogen peroxide and ultrasound, the effect was much less significant (see FIG. 10) than with the test series using ultrasound and ozone. The effect seems to be more evident with ozone than with hydrogen peroxide. […] At the very least their reproductive system appears to have been severely compromised.

[3] = 500 kHz test series, cells suspended in distilled water, ozone 3.7 ppm, hydrogen peroxide 1.5% w/w, glutaraldehyde 0.2%, control normalized 100%

| SMILES | inhibition at 1.5 % strength ([1]; 1 MHz test series, cells suspended in distilled water, ozone 3.7 ppm, hydrogen peroxide 1.5% w/w, control normalized 100%, read-out: Percentage reduction in number of viable cells upon a 5 minute exposure) [%] | inhibition at 1.5 % strength ([1]; read-out: Percentage reduction in number of viable cells upon a 5 minute exposure, 500 kHz test series, cells suspended in distilled water, ozone 3.7 ppm, hydrogen peroxide 1.5% w/w, glutaraldehyde 0.2%, control normalized 100%) [%] | growth of surviving bacteria colonies after exposure [2] | Percentage reduction in number of viable cells upon a 5 minute exposure ([1]; 1 MHz test series, cells suspended in distilled water, ozone 3.7 ppm, hydrogen peroxide 1.5% w/w, control normalized 100%) [%] | Percentage reduction in number of viable cells upon a 5 minute exposure [1, 3] [%] |
| --- | --- | --- | --- | --- | --- |
| OO [Hydrogen Peroxide, hydrogen peroxide] | 68 | 59 |  |  |  |
| O=[O+][O-] [Ozone] |  |  | bacteria colonies were visible after 24 hours | 71 | 81 |
| O=CCCCC=O [Glutaraldehyde, glutaraldehdye] |  |  |  |  | 86 |
